Measured values as given in patent publication US8753841B2, “Enzyme that catalyzes a peptide-forming reaction from a carboxy component and an amine component, microbe producing the same, and a method of producing a dipeptide using the enzyme or microbe” (Ajinomoto Co., Inc., priority 2002, dated 2014).
Residues, ends and D or L forms follow the SMILES beside them.

Assays:
[1] = system: Sphingobacterium sp. strain FERM BP-8124 microbial cells; assay: Production of L-alanyl-L-glutamine using microbial cells of Sphingobacterium sp.; type: cell-based; settings: 0.1 mL 100 g/L cell suspension + 0.1 mL buffer with 200 mM L-alanine methyl ester hydrochloride, 400 mM L-glutamine, pH 9.0, 25° C., 120 minutes
Protocol: (§1) 22, 2002). […] 1 ml of this culture broth was then added to the aforementioned medium (50 ml/500 mL Sakaguchi flask) and cultured at 30° C. for 18 hours. Following completion of the culturing, the microbial cells were separated from the culture broth by centrifugation and suspended in 0.1 M borate buffer (pH 9.0) containing 10 mM EDTA at a concentration of 100 g/L as wet microbial cells. […] The resulting 0.2 mL of mixture was allowed to react at 25° C. for 120 minutes. The concentration of L-alanyl-L-glutamine formed at this time was 62 mM.
as §1, with “After” for “Following”, “culture,” for “culturing,”, “minutes.” for “minutes. The concentration of L-alanyl-L-glutamine formed at this time was 62 mM.”

[2] = system: peptide-forming enzyme from Sphingobacterium sp. strain FERM BP-8124; assay: Production of L-alanyl-L-glutamine using SP-Sepharose HP enzyme fraction of Sphingobacterium sp.; type: biochemical; settings: 10 μl SP-Sepharose HP fraction + 90 μl buffer with 111 mM L-alanine methyl ester hydrochloride, 222 mM L-glutamine, pH 9.0, 25° C., 120 minutes
Protocol: As a result, 73 mM of L-alanyl-L-glutamine was formed in the enzyme-added lot.

[3] = system: Empedobacter brevis strain FERM BP-8113 microbial cells; assay: Production of peptide using microbial cells of Empedobacter brevis; type: cell-based; settings: 1 mL 100 g/L cell suspension + 1 mL buffer with 200 mM carboxy component, 400 mM amino acid, 10 mM EDTA, pH 9.0, 18° C., 2 hours
Protocol: A 50 mL medium (pH 6.2) containing 5 grams (g) of glucose, 5 g of ammonium sulfate, 1 g of monopotassium phosphate, 3 g of dipotassium phosphate, 0.5 g of magnesium sulfate, 10 g of yeast extract and 10 g of peptone in 1 liter (L) was transferred to a 500 mL Sakaguchi flask and sterilized at 115° C. for 15 minutes.
Microbial cells were collected by centrifuging (10,000 rounds per minute (rpm), 15 minutes) the culture broth obtained in Example 1, followed by suspending them to a concentration of 100 g/L in 100 mM borate buffer (pH 9.0) containing 10 mM EDTA. After respectively adding 1 mL of the suspension to 1 mL each of 100 mM borate buffer solutions (pH 9.0) containing 10 mM EDTA, 200 mM of the following carboxy components, and 400 mM of the following amino acids to make a final volume of 2 mL, the reaction was carried out at 18° C. for 2 hours.

[4] = system: peptide-forming enzyme from Empedobacter brevis strain FERM BP-8113; assay: Substrate specificity of enzyme (peptide production from carboxy and amine components); type: biochemical; settings: L-amino acid amide hydrochloride 100 mM as carboxy component, L-amino acid 150 mM, pH 9.0, 25° C., 3 hours
[5] = system: peptide-forming enzyme from Empedobacter brevis strain FERM BP-8113; assay: Production of L-alanyl-L-glutamine from L-alanine methyl ester and L-glutamine with the Mono S fraction enzyme; settings: L-alanine methyl ester hydrochloride 100 mM, 18° C., 2 hours
[6] = system: enzyme derived from Sphingobacterium sp. strain FERM BP-8124; assay: Substrate specificity of enzyme derived from Sphingobacterium sp.; type: biochemical; settings: Table 15-4; carboxy component 100 mM, amine component 150 mM, 0.33 units enzyme, pH 9.0, 25° C., 1.5 hours
[7] = system: peptide-forming enzyme from Empedobacter brevis strain FERM BP-8113; assay: Substrate specificity of enzyme (peptide production from carboxy and amine components); type: biochemical; settings: L-amino acid methyl ester hydrochloride 100 mM, 150 mM L-glutamine, pH 9.0, 25° C., 3 hours
Source text: Ester specificity was examined in the case of using L-amino acid ester for the carboxy component. […] HCl represents hydrochloride in Table 4.
Peptide production was examined in the case of using L-alanine methyl ester for the carboxy component and using various L-amino acids for the amine component.
Peptide production was examined in the case of using various types of L-amino acid methyl esters for the carboxy component and using L-glutamine for the amine component. […] Furthermore, Tween-80 was added to the reaction system to a final concentration of 0.1% in the case of using L-Trp-OMe and L-Tyr-OMe.

[8] = Comparison of ability to catalyze peptide formation with known enzymes; type: biochemical; settings: enzyme of present invention = 100.0
Source text: The peptide-forming ability of the present enzyme was compared with that of known enzymes. Carboxypeptidase Y described in EP 278787A1 and the thiol endopeptidases (ficin, papain, bromelain, and chymopapain) described in EP 359399B1 were used as the known enzymes, and they were used in the form of purified enzymes (manufactured by Sigma). The enzyme uniformly purified in Example 3 was used as a source of the present enzyme of the present invention. […] As has been described above, the present enzyme was verified to have an extremely high peptide production rate unlike any known enzyme in the prior art. Furthermore, the enzyme of the present invention is a dimer having a molecular weight of about 75,000. In contrast, the molecular weight of the carboxypeptidase Y has been reported to be about 61,000, while the molecular weight of thiol endopeptidase has been reported to be about 23,000 to 36,000. Thus, the L-alanyl-L-glutamine production rate of the enzyme of the present invention as compared to those of the carboxypeptidase Y and the thiol endopeptidase is even greater when the rate is expressed per molecular weight than when it is expressed per unit weight as indicated in the examples.

Row | L-alanyl-L-glutamine formed [2] [mM] | Formed peptide [4] [mM] | L-Ala-L-Gln ([5]; L-glutamine 100 mM) [mM] | L-Ala-L-Gln ([5]; L-glutamine 110 mM) [mM] | L-Ala-L-Gln ([5]; L-glutamine 120 mM) [mM] | L-Ala-L-Gln ([5]; L-glutamine 130 mM) [mM] | L-Ala-L-Gln ([5]; L-glutamine 150 mM) [mM] | L-Ala-L-Gln ([5]; L-glutamine 200 mM) [mM] | Produced peptide [6] [mM] | Formed peptide [7] [mM] | Ratio of L-Ala-L-Gln production rate per enzyme unit weight [8] | Molecule | concentration of L-alanyl-L-glutamine formed [1] [mM] | Formed peptide [3] [mM]
1 | 73 | 7.6 | 68.2 | 72.1 | 73.3 | 75.1 | 75.5 | 82.0 | 0.3 | 74.6 | – | C[C@H](N)C(=O)N[C@@H](CCC(N)=O)C(=O)O [L-Ala-L-Gln, L-alanyl-L-glutamine] (H-Ala-Gln-OH) | 62 | 68.0
2 | – | – | – | – | – | – | – | – | – | – | 0.0191 | Carboxypeptidase Y: known enzyme described in EP 278787A1, purified enzyme manufactured by Sigma (protein, UniProt P00729 112-532, looked up) Carboxypeptidase Y: KIKDPKILGIDPNVTQYTGYLDVEDEDKHFFFWTFESRNDPAKDPVILWLNGGPGCSSLTGLFFELGPSSIGPDLKPIGNPYSWNSNATVIFLDQPVNVGFSYSGSSGVSNTVAAGKDVYNFLELFFDQFPEYVNKGQDFHIAGESYAGHYIPVFASEILSHKDRNFNLTSVLIGNGLTDPLTQYNYYEPMACGEGGEPSVLPSEECSAMEDSLERCLGLIESCYDSQSVWSCVPATIYCNNAQLAPYQRTGRNVYDIRKDCEGGNLCYPTLQDIDDYLNQDYVKEAVGAEVDHYESCNFDINRNFLFAGDWMKPYHTAVTDLLNQDLPILVYAGDKDFICNWLGNKAWTDVLPWKYDEEFASQKVRNWTASITDEVAGEVKSYKHFTYLRVFNGGHMVPFDVPENALSMVNEWIHGGFSL | – | –
